Results on 36 compounds are retold here after patent US20060160790A1, “Thioureas as factor Xa inhibitors” (Portola Pharmaceuticals, Inc., priority 2004, published 2006).

The target in this assay is T1, human plasma protein factor Xa (Homo sapiens, UniProt P00742).
T1 construct: measure proteolytic activity of the enzyme (factor Xa) by following cleavage of paranitroanilide substrate; purchased Haematologic Technologies (Essex Junction, Vt.); host or cells: human plasma
T1 sequence (P00742 235-488 limits assumed): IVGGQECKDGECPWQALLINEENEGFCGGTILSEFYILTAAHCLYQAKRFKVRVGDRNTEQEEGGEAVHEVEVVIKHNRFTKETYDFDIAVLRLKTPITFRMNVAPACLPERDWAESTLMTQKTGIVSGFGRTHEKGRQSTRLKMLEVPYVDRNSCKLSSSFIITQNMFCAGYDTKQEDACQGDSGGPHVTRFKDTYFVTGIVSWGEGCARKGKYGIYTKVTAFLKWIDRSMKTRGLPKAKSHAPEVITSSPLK
T1 sequence (P00742 41-179 partner limits assumed): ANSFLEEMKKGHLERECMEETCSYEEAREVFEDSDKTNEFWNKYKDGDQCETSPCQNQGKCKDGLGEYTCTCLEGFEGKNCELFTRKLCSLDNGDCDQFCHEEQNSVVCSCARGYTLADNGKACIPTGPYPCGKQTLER
Kind of assay: Factor Xa IC50 determination (cleavage of paranitroanilide substrate S-2765). Format: biochemical. To be noted: fXa 1 nM, S2765 100 μM, Tris buffered saline pH 7.4, room temperature. How it is done:
An in vitro assay for detecting and measuring inhibition activity against Factor Xa is as follows:
The substrate S-2765 (Z-D-Arg-Gly-Arg-pNA.HCl) was obtained from Diapharma (West Chester, Ohio).
The human plasma protein factor Xa was purchased from Haematologic Technologies (Essex Junction, Vt.).
All assays, which are performed in 96-well microtiter plates, measure proteolytic activity of the enzyme (factor Xa) by following cleavage of paranitroanilide substrate. The assay buffer used for proteolytic assays was Tris buffered saline (20 mM Tris, 150 mM NaCl, 5 mM CaCl2, 0.1% Bovine serum albumin (BSA), 5% Dimethly Sulfoxide (DMSO) pH 7.4). In a 96-well microtiter plate, inhibitor was serially diluted to give a range of concentrations from 0.01 nM to 10 μM (final). Duplicate sets of wells were assayed and control wells without inhibitor were included. Enzyme was added to each well, (fXa concentration=1 nM), the plate was shaken for 5 seconds and then incubated for 5 minutes at room temperature. S2765 was added (100 μM final) and the plate was shaken for 5 seconds (final liquid volume in each well was 200 μl). The degree of substrate hydrolysis was measured at 405 nm on a Thermomax plate reader (Molecular Devices, Sunnyvale, Calif.) for 2 minutes. The initial velocities (mOD/min), for each range of inhibitor concentrations, were fitted to a four parameter equation using Softmax data analysis software. The parameter C, derived from the resulting curve-fit, corresponded to the concentration for half maximal inhibition (IC50).
`NS(=O)(=O)c1ccccc1-c1ccc(NC(=O)[C@H](NC(=S)Nc2ccc(Br)cn2)c2ccccc2)cc1` [Example 31, (R) N-[4-(2-aminosulfonylphenyl)phenyl]-2-phenyl-2-(5-bromopyridin-2-ylaminothiocarbonylamino)-acetamide] returned an IC50 of 100 to 500 nM.
The result for `Cc1cc2cc(NC(=S)NCC(=O)Nc3ccc(C(=N)N(C)C)cc3)ccc2o1` [Example 1, N-[4-(dimethylaminoimino)phenyl]-2-[(2-methylbenzo[b]furan-5-yl)aminothiocarbonylamino]-acetamide] reads at least 500 nM; that for `N=C(c1ccc(NC(=O)[C@@H](NC(=S)Nc2ccc(Br)cc2C(F)(F)F)c2ccccc2)cc1)N1CCCC1` [Example 22], at least 500 nM.
`N=C(c1ccc(NC(=O)[C@@H](NC(=S)Nc2ccc(Br)cc2)c2ccccc2)cc1)N1CCCCCC1` [Example 15] gave an IC50 of at most 100 nM.
As for `N=C(c1ccc(NC(=O)[C@@H](NC(=S)Nc2ccc(Br)cc2)c2ccccc2)cc1)N1CCCC1` [Example 13, (S) N-[4-(pyrrolidinylimino)phenyl]-2-phenyl-2-(4-bromophenylaminothiocarbonylamino)-acetamide], the IC50 is at most 100 nM.
`Cc1cc2cc(NC(=S)NC(C(=O)Nc3ccc(-c4ccccc4S(N)(=O)=O)cc3)c3ccccc3)ccc2o1` (stereo not drawn) [Example 28, N-[4-(2-aminosulfonylphenyl)phenyl]-2-phenyl-2-[(2-methylbenzo[b]furan-5-yl)aminothiocarbonylamino]-acetamide] displayed an IC50 of at most 100 nM.
Turning to `N=C(c1ccc(NC(=O)[C@@H](NC(=S)Nc2ccc(Cl)cc2)c2ccccc2)cc1)N1CCCC1` [Example 16], the IC50 is at most 100 nM.
`NS(=O)(=O)c1ccccc1-c1ccc(NC(=O)C(NC(=S)Nc2ccc(Cl)cc2)c2ccccc2)cc1` (stereo in doubt) [Example 33, (R) N-[4-(2-aminosulfonylphenyl)phenyl]-2-phenyl-2-(4-chlorophenylaminothiocarbonylamino)-acetamide] had an IC50 of at most 100 nM.
`O=C(Nc1ccc(N2CCOCC2=O)cc1)C(NC(=S)Nc1ccc(Cl)cc1)c1ccccc1` (stereo not drawn) [Example 25, N-[4-(3-oxo-morpholin-4-yl)phenyl]-2-phenyl-2-(4-chlorophenylaminothiocarbonylamino)-acetamide] yielded an IC50 of at most 100 nM.
`N=C(c1ccc(NC(=O)[C@@H](NC(=S)Nc2ccc(Br)cc2F)c2ccccc2)cc1)N1CCCC1` [Example 17] came in with an IC50 of at least 500 nM.
On to `N=C(c1ccc(NC(=O)C(NC(=S)Nc2ccc(F)cc2)c2ccccc2)cc1)N1CCCC1` (stereo not drawn) [Example 10], for which the IC50 is at most 100 nM.
As to `CN1CCC(N2CCN(C(=O)[C@@H](NC(=S)Nc3ccc(Cl)cc3)c3ccccc3)CC2)CC1` [Example 26], the IC50 is at most 100 nM.
The compound `O=C(Nc1ccc(-n2ccccc2=O)cc1)[C@H](NC(=S)Nc1ccc(Cl)cc1)c1ccccc1` [Example 35, (2R) N-[4-(2-pyridon-1-yl)phenyl]-2-phenyl-2-(4-chlorophenylaminothiocarbonylamino)-acetamide] showed an IC50 of at most 100 nM.
For `N=C(c1ccc(NC(=O)C(NC(=S)Nc2ccc(Br)cc2)c2ccccc2)cc1)N1CCCC1` (stereo not drawn) [Example 5] the value was at most 100 nM; for `N=C(c1ccc(NC(=O)[C@@H](NC(=S)Nc2ccc(Br)c(Cl)c2)c2ccccc2)cc1)N1CCCC1` [Example 21, (S) N-[4-(pyrrolidinylimino)phenyl]-2-phenyl-2-(3-chloro-4-bromophenylaminothiocarbonylamino)-acetamide], at least 500 nM; for `NS(=O)(=O)c1ccccc1-c1ccc(NC(=O)C(NC(=S)Nc2ccc(Cl)cc2)c2ccccc2)cc1` (stereo in doubt) [Example 32, (S) N-[4-(2-aminosulfonylphenyl)phenyl]-2-phenyl-2-(4-chlorophenylaminothiocarbonylamino)-acetamide], 100 to 500 nM.
As for `C#Cc1ccc(NC(=S)NC(C(=O)Nc2ccc(C(=N)N3CCCC3)cc2)c2ccccc2)cc1` (stereo not drawn) [Example 11], the IC50 is at most 100 nM.
Turning to `CN(C)C(=N)c1ccc(NC(=O)C(NC(=S)Nc2ccc(Br)cc2)c2ccccc2)cc1` (stereo not drawn) [Example 4, N-[4-(dimethylaminoimino)phenyl]-2-phenyl-2-(4-bromophenylaminothiocarbonylamino)-acetamide], the IC50 was at most 100 nM.
`Cc1cc2cc(NC(=S)N[C@@H](CC(C)C)C(=O)Nc3ccc(C(=N)N(C)C)cc3)ccc2o1` [Example 3]: the IC50 was at least 500 nM.
The compound `CC(C)C(NC(=S)Nc1ccc(Cl)cc1)C(=O)Nc1ccc(C2=NCCN2C)cc1` (stereo not drawn) [Example 24, N-[4-(1-methyl-4,5-dihydro-1H-imidazol-2-yl)phenyl]-2-isopropyl-2-(4-chlorophenylaminothiocarbonylamino]-acetamide] gave an IC50 of at most 100 nM.
For the compound `N=C(c1ccc(NC(=O)[C@@H](NC(=S)Nc2ccc(Br)cc2)c2ccccc2)cc1)N1CCCCC1` [Example 14, (S) N-[4-(piperidinylimino)phenyl]-2-phenyl-2-(4-bromophenylaminothiocarbonylamino)-acetamide], the IC50 was 100 to 500 nM.
As for `NS(=O)(=O)c1ccccc1-c1ccc(NC(=O)[C@@H](NC(=S)Nc2ccc(Br)cn2)c2ccccc2)cc1` [Example 30, (S) N-[4-(2-aminosulfonylphenyl)phenyl]-2-phenyl-2-(5-bromopyridin-2-ylaminothiocarbonylamino)-acetamide], the IC50 was at most 100 nM.
The compound `N=C(c1ccc(NC(=O)C(NC(=S)Nc2ccc(Br)cc2)c2ccccc2)cc1)N1CCC1` (stereo not drawn) [Example 6] showed an IC50 of at most 100 nM.
The compound `CCOC(=O)C1CCN(C(=N)c2ccc(NC(=O)C(NC(=S)Nc3ccc(Br)cc3)c3ccccc3)cc2)CC1` (stereo not drawn) [Example 8] yielded an IC50 of at least 500 nM.
For `N=C(c1ccc(NC(=O)[C@@H](NC(=S)Nc2ccc(Cl)cc2Cl)c2ccccc2)cc1)N1CCCC1` [Example 20] the value was at least 500 nM; for `N=C(c1ccc(NC(=O)[C@@H](NC(=S)Nc2c(Br)cc(Br)cc2Br)c2ccccc2)cc1)N1CCCC1` [Example 23], at least 500 nM.
The compound `CN1CCN=C1c1ccc(NC(=O)C(NC(=S)Nc2ccc(Br)cc2)c2ccccc2)cc1` (stereo not drawn) [Example 9, N-[4-(1-methyl-4,5-dihydro-1H-imidazol-2-yl)phenyl]-2-phenyl-2-(4-bromophenylaminothiocarbonylamino)-acetamide] displayed an IC50 of at most 100 nM.
Consider `Cc1cc(Br)ccc1NC(=S)N[C@H](C(=O)Nc1ccc(C(=N)N2CCCC2)cc1)c1ccccc1` [Example 19], for which the IC50 was at least 500 nM.
The compound `Cc1cc2cc(NC(=S)NCC(=O)Nc3ccc(C4=NCCN4C)cc3)ccc2o1` [Example 2, N-[4-(1-methyl-4,5-dihydro-1H-imidazol-2-yl)phenyl]-2-[(2-methylbenzo[b)furan-5-yl)aminothiocarbonylamino]-acetamide] yielded an IC50 of at least 500 nM.
For `NS(=O)(=O)c1ccccc1-c1ccc(NC(=O)C(NC(=S)Nc2ccc(Br)cc2)c2ccccc2)cc1` (stereo not drawn) [Example 29, N-[4-(2-aminosulfonylphenyl)phenyl]-2-phenyl-2-[(4-bromophenyl)aminothiocarbonylamino]-acetamide] the value was at most 100 nM; for `CN1CCC(C2CCN(C(=O)[C@H](NC(=S)Nc3ccc(Cl)cc3)c3ccccc3)CC2)CC1` [Example 37, (2R) 4-(1-methylpiperidin-4-yl)piperidin-1-yl-2-phenyl-2-(4-chlorophenylaminothiocarbonylamino)-acetamide], at least 500 nM; for `COCCN(C)C(=N)c1ccc(NC(=O)C(NC(=S)Nc2ccc(Br)cc2)c2ccccc2)cc1` (stereo not drawn) [Example 7, N-{4-[(N-methyl-N-2-methoxyethyl)aminoimino]phenyl}-2-phenyl-2-(4-bromophenylaminothiocarbonylamino)-acetamide], at most 100 nM.
Compound `O=C(Nc1ccc(-n2ccccc2=O)cc1)[C@@H](NC(=S)Nc1ccc(Cl)cc1)c1ccccc1` [Example 34, (2S) N-[4-(2-pyridon-1-yl)phenyl]-2-phenyl-2-(4-chlorophenylaminothiocarbonylamino)-acetamide] registered a 50% inhibitory concentration (IC50) of at most 100 nM.
In turn, `N=C(c1ccc(NC(=O)[C@@H](NC(=S)Nc2ccc(Br)cc2OC(F)(F)F)c2ccccc2)cc1)N1CCCC1` [Example 18] showed an IC50 of at least 500 nM.
On to `CN1CCC(N2CCN(C(=O)[C@H](NC(=S)Nc3ccc(Cl)cc3)c3ccccc3)CC2)CC1` [Example 27], for which the IC50 was at most 100 nM.
`O=C(Nc1ccc(-n2ccccc2=O)cc1F)[C@H](NC(=S)Nc1ccc(Cl)cc1)c1ccccc1` [Example 36, (2R) N-[4-(2-pyridon-1-yl)-2-fluorophenyl]-2-phenyl-2-(4-chlorophenylaminothiocarbonylamino)-acetamide]: the IC50 is at most 100 nM.

As usually defined, the IC50 is the midpoint of a concentration-inhibition curve. A low value points to greater potency in that assay.
